Experimental data reported in PMC10721329, “Quisinostat is a brain-penetrant radiosensitizer in glioblastoma” (JCI Insight, 2023).

System: BT145 cells
Test: Intracellular uptake of QST and level in media, with or without washout (LC-MS/MS)
Assay type: cell-based, human
Experimental: To further understand the kinetics of drug-target engagement in GSCs, we harvested media and BT145 cells at 0, 2, 6, 10, and 24 hours with or without removal of QST (75 nM). At each time point, we measured the intracellular drug levels and concentrations in the cell media. With continuous drug exposure (no washout), the intracellular levels of QST in BT145 increased throughout the incubation period, reaching equilibrium by 10 hours (Supplemental Figure 2A). […] By contrast, in washout experiments (performed 2 hours after spiking cell media with the drug), minimal QST levels were measured intracellularly after drug removal at all time points (Supplemental Figure 2B).
QST concentrations in specimens were measured using reverse-phase LC on the AB SCIEX QTRAP6500+ LC-MS/MS system by operating electrospray in the positive ion mode. For liquid chromatographic separation, gradient elution was performed using a Phenomenex Kinetex F5 100 Å column (100 × 2.1 mm, 2.6 μm). The initial composition of the mobile phase was 70% phase A (0.1% formic acid in water) and 30% phase B (0.1% formic acid in 1:1 acetonitrile/methanol) with a 0.35 mL/min flow rate. Gradient elution was achieved as follows: mobile phase (B) was maintained at 30% from 0 to 0.3 minutes, increased to 95% from 0.3 to 0.8 minutes, maintained at 95% from 0.8 to 2.5 minutes, and decreased to 30% from 2.5 to 2.8 minutes. The total run time was 3.5 minutes. The internal standard used in this study was D8-infigratinib. The retention times for QST and D8-infigratinib were 1.6 and 1.8 minutes, respectively. Mass-to-charge ratio transitions were as follows: 395.20 → 144.00 (QST) and 568.08 → 321.00 (D8-infigratinib). LC-MS/MS analysis was performed using an Analyst 1.7 Chromatographic Data System. See Supplemental Methods for detailed PK experiments. […]
Cell Media and Lysate Sample Preparation
Cell media and lysates were thawed at room temperature. An aliquot of 20 µL of cell media or lysate was transferred into a micro centrifuge tube followed by protein precipitation with 60 µL of IS-containing methanol precipitation solution. The mixture was vortex-mixed for 10 s and centrifuged at 12000 g at 4 °C for 10 min. A 50-µL aliquot of the supernatant was transferred to an autosampler vial, and 5 µL was injected into the LC-MS/MS system for […]

Cn1cc(CNCC2CCN(c3ncc(C(=O)NO)cn3)CC2)c2ccccc21 [QST, quisinostat]
time to equilibrium of intracellular QST level (BT145, 75 nM QST, continuous exposure): ≤ 10 h
Average Cell uptake (no washout, 2 hrs): 7.31 nmol/g protein
Media (no washout, 2 hrs): 62.85 nM
Media at cell collection (no washout, 2 hrs): 52.25 nM
Average Cell uptake (no washout, 6 hrs): 10.61 nmol/g protein
Media (no washout, 6 hrs): 67.45 nM
Media at cell collection (no washout, 6 hrs): 45.30 nM
Average Cell uptake (no washout, 10 hrs): 11.62 nmol/g protein
Media (no washout, 10 hrs): 65.15 nM
Media at cell collection (no washout, 10 hrs): 39.70 nM
Average Cell uptake (no washout, 24 hrs): 11.78 nmol/g protein
Media (no washout, 24 hrs): 64.10 nM
Media at cell collection (no washout, 24 hrs): 30.75 nM
Average Cell uptake (with washout, 0 hrs): 7.31 nmol/g protein
Media (with washout, 0 hrs): 62.85 nM
Media at cell collection (with washout, 0 hrs): 52.25 nM
Average Cell uptake (with washout, 2 hrs): 2.58 nmol/g protein
Media (with washout, 2 hrs): 64.35 nM
Media at cell collection (with washout, 2 hrs): 3.665 nM
Average Cell uptake (with washout, 6 hrs): 3.23 nmol/g protein
Media (with washout, 6 hrs): 63.40 nM
Media at cell collection (with washout, 6 hrs): 5.31 nM
Average Cell uptake (with washout, 10 hrs): 2.72 nmol/g protein
Media (with washout, 10 hrs): 66.40 nM
Media at cell collection (with washout, 10 hrs): 5.605 nM
Average Cell uptake (with washout, 24 hrs): 3.95 nmol/g protein
Media (with washout, 24 hrs): 58.55 nM
Media at cell collection (with washout, 24 hrs): 3.57 nM
